Source: publication PMC12752627, “Discovery of a Potent and Selective TEAD Degrader with Durable Degradation Activity” (Advanced Science, 2025)

Key:
Assay type in all cases: cell-based
[1] = system: 867 cancer cell lines; assay: PRISM assay (barcoded cell line screening, 5 days); parameters: KG-FP-003-AUC: scale not given here;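 further: top test concentration 10 mM in eight-point dilution series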
Description: The principle of the PRISM assay has been described elsewhere and was conducted as previously outlined by the PRISM team at the Broad Institute.^[ [14], [31] ^] In PRISM (MTS027) experiments, KG‐FP‐003 was tested across 867 different cancer cell lines. Cells were treated with eight concentration gradients, ranging from 4.6 nM to […], in triplicate dilutions over a period of five days. Each plate was treated with 20 µM bortezomib as a positive control and DMSO as a negative control. Three replicate experiments were performed for each compound. The resulting data were analyzed using GraphPad PRISM 9.5.

[2] = system: MSTO-211H CRBN knockout cells; assay: Cell viability assay, CRBN-knockout MSTO-211H; conditions: Homo sapiens, Figure 3D, read-out: MSTO-211H: CRBN KO IC50
Description: Cells were seeded at a density of 1000 cells per well in 96‐well flat‐bottomed cell culture plates and cultured overnight at 37 °C with 5% CO2 to allow for cell attachment. The following day, different concentrations of compounds were added using an I‐DOT dispenser. After 72 h, 25 µL of CellTiter‐Meiluncell Luminescent Cell Viability Reagent (Meilunbio, #PWL111‐2) was added and incubated for 15 min at room temperature. Luminescence signals were then measured using an Envision plate reader (Revvity). Data were analyzed using GraphPad Prism 9.5 software.^[ [30] ^]

[3] = system: A172 cells; assay: RNA-seq transcriptomics in A172 cells; conditions: 30 nM, 24 h
Description: Following treatment, cells were harvested, washed three times with pre‐chilled PBS, and stored at −80 °C. Total RNA was extracted using TRIzol reagent according to the manufacturer's instructions. mRNA was enriched using oligo(dT) magnetic beads, followed by fragmentation in First Strand Synthesis Reaction Buffer (5×) with divalent cations under elevated temperature.
RNA‐seq libraries were constructed using the ABclonal Fast RNAseq Lib Prep Kit V2 (#RK20306). […] Base calling was performed through real‐time fluorescence capture of polymerase‐driven extension reactions using fluorescently labeled dNTPs and adapter‐anchored primers. Gene‐level read counts were quantified using featureCounts (v2.0.6) and normalized to FPKM values by incorporating gene length. Differential expression analysis was conducted using the DESeq2 package (v1.42.0) for samples with biological replicates, based on the negative binomial distribution. P‐values were adjusted using the Benjamini–Hochberg method, with significance thresholds set at adjusted p ≤ 0.05 and |log2(fold change)| ≥ 1. For samples without replicates, edgeR (v4.0.16) was used, with scaling normalization applied to correct for sequencing depth differences. Functional enrichment analysis, including Gene Ontology (GO) and KEGG pathway analysis, was performed using clusterProfiler (v4.8.1), with correction for gene length bias. A significance threshold of adjusted p < 0.05 was applied. In addition, Gene Set Enrichment Analysis (GSEA) was performed to assess coordinated expression changes in predefined gene sets (GO and KEGG), with genes ranked by the magnitude of differential expression. All transcriptomic experiments were performed by Novogene Co., Ltd.

CNC(=O)c1cc2c(c(F)c1-c1c(Cl)c(F)cc3c1C[C@@](CN[C@H]1CC[C@H](C(=O)N4CCC(CC5CCN(C(=O)COc6ccc(N7CCC(=O)NC7=O)c(C)c6)CC5)CC4)CC1)(c1ccccc1)O3)[C@@H](O)[C@@H](C)C2 [KG-FP-003]
KG-FP-003-AUC ([1]; DAOY_CENTRAL_NERVOUS_SYSTEM ACH-000211 PR300): 0.93
KG-FP-003-AUC ([1]; DAOY_CENTRAL_NERVOUS_SYSTEM ACH-000211 PR500): 0.92
KG-FP-003-AUC ([1]; DBTRG05MG_CENTRAL_NERVOUS_SYSTEM ACH-000863 PR500): 0.64
KG-FP-003-AUC ([1]; DEL_HAEMATOPOIETIC_AND_LYMPHOID_TISSUE ACH-000233 PR300): 0.87
KG-FP-003-AUC ([1]; DETROIT562_UPPER_AERODIGESTIVE_TRACT ACH-000207 PR500): 0.81
KG-FP-003-AUC ([1]; DKMG_CENTRAL_NERVOUS_SYSTEM ACH-000244 PR500): 0.85
KG-FP-003-AUC ([1]; DL_SOFT_TISSUE ACH-001059 PR300): 0.70
KG-FP-003-AUC ([1]; DMS53_LUNG ACH-000698 PR300): 1.00
KG-FP-003-AUC ([1]; DMS273_LUNG ACH-000749 PR500): 0.99
KG-FP-003-AUC ([1]; DND41_HAEMATOPOIETIC_AND_LYMPHOID_TISSUE ACH-000981 PR300): 0.75
KG-FP-003-AUC ([1]; DOHH2_HAEMATOPOIETIC_AND_LYMPHOID_TISSUE ACH-000056 PR300): 0.76
KG-FP-003-AUC ([1]; DOTC24510_CERVIX ACH-001341 PR300): 0.78
KG-FP-003-AUC ([1]; DU145_PROSTATE ACH-000979 PR500): 0.93
KG-FP-003-AUC ([1]; DU4475_BREAST ACH-000258 PR300): 0.97
KG-FP-003-AUC ([1]; DV90_LUNG ACH-000925 PR500): 1.00
KG-FP-003-AUC ([1]; EB1_HAEMATOPOIETIC_AND_LYMPHOID_TISSUE ACH-000877 PR300): 0.99
KG-FP-003-AUC ([1]; EBC1_LUNG ACH-000563 PR500): 0.77
KG-FP-003-AUC ([1]; ECC2_BILIARY_TRACT ACH-001997 PR300): 0.76
KG-FP-003-AUC ([1]; ECGI10_OESOPHAGUS ACH-000305 PR500): 0.96
KG-FP-003-AUC ([1]; EFE184_ENDOMETRIUM ACH-000435 PR300): 0.72
KG-FP-003-AUC ([1]; EFM19_BREAST ACH-000330 PR300): 0.99
KG-FP-003-AUC ([1]; EFM192A_BREAST ACH-000117 PR500): 0.99
KG-FP-003-AUC ([1]; EFO21_OVARY ACH-000308 PR500): 0.71
KG-FP-003-AUC ([1]; EFO27_OVARY ACH-000936 PR500): 0.77
KG-FP-003-AUC ([1]; EGI1_BILIARY_TRACT ACH-001494 PR300): 0.88
KG-FP-003-AUC ([1]; EKVX_LUNG ACH-000706 PR300): 0.71
KG-FP-003-AUC ([1]; EM2_HAEMATOPOIETIC_AND_LYMPHOID_TISSUE ACH-000295 PR300): 0.94
KG-FP-003-AUC ([1]; EMTOKA_ENDOMETRIUM ACH-001495 PR300): 0.83
KG-FP-003-AUC ([1]; EOL1_HAEMATOPOIETIC_AND_LYMPHOID_TISSUE ACH-000198 PR300): 0.69
KG-FP-003-AUC ([1]; ES2_OVARY ACH-000906 PR500): 0.62
KG-FP-003-AUC ([1]; ESS1_ENDOMETRIUM ACH-000913 PR500): 0.56
KG-FP-003-AUC ([1]; EW8_BONE ACH-000499 PR300): 0.98
KG-FP-003-AUC ([1]; EWS502_BONE ACH-000279 PR300): 0.99
KG-FP-003-AUC ([1]; EWS502_BONE ACH-000279 PR500): 0.99
KG-FP-003-AUC ([1]; FADU_UPPER_AERODIGESTIVE_TRACT ACH-000846 PR500): 0.92
KG-FP-003-AUC ([1]; FLO1_OESOPHAGUS ACH-001500 PR300): 0.75
KG-FP-003-AUC ([1]; FTC133_THYROID ACH-000903 PR500): 0.99
KG-FP-003-AUC ([1]; FTC238_THYROID ACH-000897 PR500): 0.91
KG-FP-003-AUC ([1]; G292CLONEA141B1_BONE ACH-000082 PR300): 0.64
KG-FP-003-AUC ([1]; G292CLONEA141B1_BONE ACH-000082 PR500): 0.53
KG-FP-003-AUC ([1]; G361_SKIN ACH-000572 PR500): 1.00
KG-FP-003-AUC ([1]; G402_SOFT_TISSUE ACH-000375 PR300): 0.43
KG-FP-003-AUC ([1]; G402_SOFT_TISSUE ACH-000375 PR500): 0.69
KG-FP-003-AUC ([1]; G415_BILIARY_TRACT ACH-001850 PR300): 0.65
KG-FP-003-AUC ([1]; GAMG_CENTRAL_NERVOUS_SYSTEM ACH-000098 PR500): 0.45
KG-FP-003-AUC ([1]; GB2_BILIARY_TRACT ACH-001961 PR300): 0.92
KG-FP-003-AUC ([1]; GCIY_STOMACH ACH-000047 PR500): 0.98
KG-FP-003-AUC ([1]; GCT27_TESTIS ACH-001502 PR300): 0.73
KG-FP-003-AUC ([1]; GCT_SOFT_TISSUE ACH-000835 PR500): 0.53
KG-FP-003-AUC ([1]; GI1_CENTRAL_NERVOUS_SYSTEM ACH-000756 PR500): 0.74
IC50 [2]: 0.543 ± 0.05 µM
Share of the compound's regulated genes in the 56-gene overlap [3]: 4%
DEG gene counts (Down) ([3]; VS Control (DMSO)): 611
DEG gene counts (Up) ([3]; VS Control (DMSO)): 662
